Reference: patent publication US20210252008A1, “BIARYL COMPOSITIONS AND METHODS FOR MODULATING A KINASE CASCADE” (Athenex, Inc., priority 2004, published 2021)

Columns and labels:
[1] = tested on: She Y239/240; experiment: Intracellular phosphorylation levels: She Y239/240; assay type: cell-based; conditions: c-Src/NIH-3T3 and HT-29 cells; FIG. 3
Experimental: (§1) HT29 (colon cancer) and c-Src527F/NIH-3T3 (Src transformed) cell lines were treated with KX2-391 or with AstraZeneca's ATP competitive Src inhibitor AZ28. AZ28 serves as a positive comparator to show what a validated Src inhibitor should do in these assays. After treatment with compound, cells were lysed, subjected to PAGE and probed with a battery of antibodies. […] In addition, off-target protein phosphorylation was also investigated. Further, induction of apoptosis was evaluated via Caspase 3 cleavage. Multiple doses of each compound were tested because the trends in response to increasing drug concentration are the most reliable indicator of activity.
(§2) The same range of multiples of the GI50 for AZ28 in these two cell lines was run as a comparison.

[2] = molecular target: CHK1(h) (Homo sapiens, UniProt O14757); experiment: Inhibition of isolated kinases; assay type: biochemical; conditions: compound @ 10 μM
[3] = tested on: FAK Tyr 925; experiment: Intracellular phosphorylation levels: FAK Tyr 925; assay type: cell-based; conditions: c-Src/NIH-3T3 and HT-29 cells; FIG. 2
Experimental: as §1, §2

[4] = tested on: FAK Y397; experiment: FAK autophosphorylation in cells; assay type: cell-based; conditions: c-Src527F/NIH3T3 cells; FIG. 8
Experimental: as §1, §2
FAK Y397 is mainly a FAK autophosphorylation site and only a poor Src transphorylation site. AZ28 is […] FAK inhibitor (see isolated enzyme data in Table 5). However, no inhibition of FAK autophosphorylation in c-Src527F/NIH3T3 cells is seen with KX-391.

[5] = tested on: Paxillin Y-31; experiment: Intracellular phosphorylation levels: Paxillin Y-31; assay type: cell-based; conditions: c-Src/NIH-3T3 cells; FIG. 4
Experimental: as §1, §2
Note: paxillin Y-31 was not detected in HT29 cells with or without added drug.

[6] = tested on: PDGF receptor tyrosine kinase Y572/574; experiment: PDGF receptor autophosphorylation in cells; assay type: cell-based; conditions: c-Src/NIH-3T3 cells; FIG. 7
Experimental: as §1, §2
This is thought not to be a direct Src substrate in cells.

[7] = molecular target: Fyn(h) (Homo sapiens, UniProt P06241); experiment: Inhibition of isolated kinases; assay type: biochemical; conditions: compound @ 10 μM
Description: (§3) Table 5 illustrates percent activity of isolated kinases in the presence of the AstraZeneca ATP-competitive inhibitor (KX-328, AZ-28) or KX2-391 relative to control (untreated) isolated kinases.

[8] = molecular target: Abl(h) (Homo sapiens, UniProt P00519); experiment: Inhibition of isolated kinases; assay type: biochemical; conditions: compound @ 10 μM
Sequence of Abl(h) (P00519 whole entry): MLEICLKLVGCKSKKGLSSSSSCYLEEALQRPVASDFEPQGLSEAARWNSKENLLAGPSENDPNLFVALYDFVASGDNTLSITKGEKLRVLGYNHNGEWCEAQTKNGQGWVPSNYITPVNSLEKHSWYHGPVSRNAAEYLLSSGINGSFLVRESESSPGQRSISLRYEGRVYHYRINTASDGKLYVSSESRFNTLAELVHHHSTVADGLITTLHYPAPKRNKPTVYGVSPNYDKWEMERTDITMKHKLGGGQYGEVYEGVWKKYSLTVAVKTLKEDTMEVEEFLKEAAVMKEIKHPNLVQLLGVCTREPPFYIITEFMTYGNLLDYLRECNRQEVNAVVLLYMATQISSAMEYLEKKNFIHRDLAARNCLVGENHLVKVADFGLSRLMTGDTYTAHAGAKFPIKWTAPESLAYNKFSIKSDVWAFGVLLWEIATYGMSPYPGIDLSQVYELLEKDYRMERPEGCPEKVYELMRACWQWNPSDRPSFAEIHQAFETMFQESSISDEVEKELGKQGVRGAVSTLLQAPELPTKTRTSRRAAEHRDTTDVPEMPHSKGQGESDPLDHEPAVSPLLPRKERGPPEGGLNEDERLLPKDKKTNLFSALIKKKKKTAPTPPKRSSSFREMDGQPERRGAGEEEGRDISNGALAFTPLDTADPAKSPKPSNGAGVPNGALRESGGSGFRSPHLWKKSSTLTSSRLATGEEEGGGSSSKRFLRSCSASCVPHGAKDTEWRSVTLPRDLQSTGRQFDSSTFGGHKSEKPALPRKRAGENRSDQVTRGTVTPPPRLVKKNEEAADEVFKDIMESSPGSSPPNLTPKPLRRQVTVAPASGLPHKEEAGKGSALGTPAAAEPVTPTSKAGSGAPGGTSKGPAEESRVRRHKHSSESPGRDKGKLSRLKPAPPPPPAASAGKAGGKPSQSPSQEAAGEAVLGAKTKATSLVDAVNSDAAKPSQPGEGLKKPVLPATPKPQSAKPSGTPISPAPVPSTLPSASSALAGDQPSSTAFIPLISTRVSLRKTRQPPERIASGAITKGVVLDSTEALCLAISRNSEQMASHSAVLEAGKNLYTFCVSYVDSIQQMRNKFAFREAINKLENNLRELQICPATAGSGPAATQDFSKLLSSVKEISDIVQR
Description: as §3

[9] = molecular target: Yes(h) (Homo sapiens, UniProt P07947); experiment: Inhibition of isolated kinases; assay type: biochemical; conditions: compound @ 10 μM
Description: as §3

[10] = molecular target: IGF-1R(h) (Homo sapiens, UniProt P08069); experiment: Inhibition of isolated kinases; assay type: biochemical; conditions: compound @ 10 μM
Sequence of IGF-1R(h) (P08069 31-1367): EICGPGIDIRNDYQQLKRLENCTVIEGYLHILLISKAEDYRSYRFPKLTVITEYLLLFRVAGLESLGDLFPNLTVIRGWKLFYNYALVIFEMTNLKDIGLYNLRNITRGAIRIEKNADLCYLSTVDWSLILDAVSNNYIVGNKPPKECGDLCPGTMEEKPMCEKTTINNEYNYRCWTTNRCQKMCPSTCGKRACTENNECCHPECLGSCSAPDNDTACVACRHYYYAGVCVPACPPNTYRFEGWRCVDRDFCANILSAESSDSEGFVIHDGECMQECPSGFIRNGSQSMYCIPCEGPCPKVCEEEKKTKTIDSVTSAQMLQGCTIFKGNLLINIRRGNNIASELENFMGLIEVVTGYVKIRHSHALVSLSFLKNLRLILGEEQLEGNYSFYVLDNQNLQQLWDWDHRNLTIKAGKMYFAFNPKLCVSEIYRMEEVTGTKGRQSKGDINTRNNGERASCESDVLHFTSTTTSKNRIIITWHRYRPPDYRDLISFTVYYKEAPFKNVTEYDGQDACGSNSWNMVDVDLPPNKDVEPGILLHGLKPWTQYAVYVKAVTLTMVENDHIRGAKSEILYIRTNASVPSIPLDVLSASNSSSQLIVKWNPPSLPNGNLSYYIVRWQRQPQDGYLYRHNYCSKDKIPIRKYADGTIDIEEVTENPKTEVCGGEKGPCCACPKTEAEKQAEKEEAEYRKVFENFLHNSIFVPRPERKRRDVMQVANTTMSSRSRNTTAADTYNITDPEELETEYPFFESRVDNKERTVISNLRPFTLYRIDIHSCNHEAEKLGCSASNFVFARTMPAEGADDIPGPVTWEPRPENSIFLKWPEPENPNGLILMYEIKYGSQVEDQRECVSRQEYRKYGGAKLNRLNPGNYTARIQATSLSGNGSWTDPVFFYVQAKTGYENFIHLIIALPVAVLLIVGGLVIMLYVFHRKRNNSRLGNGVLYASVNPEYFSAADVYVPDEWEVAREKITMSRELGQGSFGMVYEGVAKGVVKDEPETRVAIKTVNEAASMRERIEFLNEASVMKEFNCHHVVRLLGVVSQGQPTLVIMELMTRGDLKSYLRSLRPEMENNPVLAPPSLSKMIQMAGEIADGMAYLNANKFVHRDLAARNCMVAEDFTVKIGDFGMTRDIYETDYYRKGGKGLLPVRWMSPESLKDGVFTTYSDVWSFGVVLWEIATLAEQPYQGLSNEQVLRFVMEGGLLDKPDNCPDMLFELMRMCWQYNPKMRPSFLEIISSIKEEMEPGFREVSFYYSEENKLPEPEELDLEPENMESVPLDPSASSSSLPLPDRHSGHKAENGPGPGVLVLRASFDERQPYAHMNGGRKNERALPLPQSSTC
Description: as §3

[11] = molecular target: PDGFRβ(h) (Homo sapiens, UniProt P09619); experiment: Inhibition of isolated kinases; assay type: biochemical; conditions: compound @ 10 μM
Sequence of PDGFRβ(h) (P09619 33-1106): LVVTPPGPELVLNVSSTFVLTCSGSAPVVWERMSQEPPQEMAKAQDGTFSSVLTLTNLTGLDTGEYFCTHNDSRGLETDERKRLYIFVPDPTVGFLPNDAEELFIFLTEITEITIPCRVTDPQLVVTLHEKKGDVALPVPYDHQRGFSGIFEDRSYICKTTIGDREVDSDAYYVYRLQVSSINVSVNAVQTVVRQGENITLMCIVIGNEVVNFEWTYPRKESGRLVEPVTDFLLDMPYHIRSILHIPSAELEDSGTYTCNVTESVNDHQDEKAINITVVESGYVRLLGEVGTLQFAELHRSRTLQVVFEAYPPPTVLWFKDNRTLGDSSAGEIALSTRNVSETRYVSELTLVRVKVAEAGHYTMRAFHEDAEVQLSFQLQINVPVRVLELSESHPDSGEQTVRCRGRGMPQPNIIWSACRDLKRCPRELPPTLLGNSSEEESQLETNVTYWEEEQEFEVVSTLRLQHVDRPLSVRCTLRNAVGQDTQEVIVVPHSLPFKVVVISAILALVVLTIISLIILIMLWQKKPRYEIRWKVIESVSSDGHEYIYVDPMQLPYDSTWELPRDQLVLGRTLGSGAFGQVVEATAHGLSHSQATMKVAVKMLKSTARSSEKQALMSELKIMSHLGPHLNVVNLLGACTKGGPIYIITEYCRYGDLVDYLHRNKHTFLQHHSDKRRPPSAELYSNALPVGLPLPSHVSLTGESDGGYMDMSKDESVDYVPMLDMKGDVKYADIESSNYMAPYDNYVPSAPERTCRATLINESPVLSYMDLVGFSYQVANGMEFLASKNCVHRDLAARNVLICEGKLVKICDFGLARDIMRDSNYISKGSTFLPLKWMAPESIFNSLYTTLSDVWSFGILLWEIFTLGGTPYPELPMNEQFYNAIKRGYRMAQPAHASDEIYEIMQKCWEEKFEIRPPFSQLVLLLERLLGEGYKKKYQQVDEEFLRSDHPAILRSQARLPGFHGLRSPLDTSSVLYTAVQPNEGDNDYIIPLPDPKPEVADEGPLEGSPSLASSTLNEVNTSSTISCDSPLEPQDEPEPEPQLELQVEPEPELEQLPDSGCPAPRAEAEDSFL
Description: as §3

[12] = molecular target: ZAP-70(h) (Homo sapiens, UniProt P43403); experiment: Inhibition of isolated kinases; assay type: biochemical; conditions: compound @ 10 μM
Sequence of ZAP-70(h) (P43403 whole entry): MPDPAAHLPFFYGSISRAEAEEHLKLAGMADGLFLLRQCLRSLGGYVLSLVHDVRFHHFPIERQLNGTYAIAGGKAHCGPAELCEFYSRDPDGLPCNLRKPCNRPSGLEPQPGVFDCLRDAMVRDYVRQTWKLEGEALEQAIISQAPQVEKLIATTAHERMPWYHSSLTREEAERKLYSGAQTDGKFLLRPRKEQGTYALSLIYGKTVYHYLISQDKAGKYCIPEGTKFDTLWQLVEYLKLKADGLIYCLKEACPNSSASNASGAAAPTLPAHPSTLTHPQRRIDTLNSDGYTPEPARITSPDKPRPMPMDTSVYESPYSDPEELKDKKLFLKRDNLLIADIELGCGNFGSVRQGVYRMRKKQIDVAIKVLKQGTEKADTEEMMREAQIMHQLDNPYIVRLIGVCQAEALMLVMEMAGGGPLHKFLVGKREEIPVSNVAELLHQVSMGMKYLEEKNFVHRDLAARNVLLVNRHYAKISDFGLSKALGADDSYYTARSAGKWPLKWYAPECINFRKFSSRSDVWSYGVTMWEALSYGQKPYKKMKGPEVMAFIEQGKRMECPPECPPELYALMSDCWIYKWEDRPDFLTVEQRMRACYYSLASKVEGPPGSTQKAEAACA
Description: as §3

[13] = molecular target: Pyk2(h) (Homo sapiens, UniProt Q14289); experiment: Inhibition of isolated kinases; assay type: biochemical; conditions: compound @ 10 μM
Description: as §3

[14] = tested on: PI3 kinase; experiment: Inhibition of isolated kinases; assay type: biochemical; conditions: compound @ 10 μM
Description: as §3

[15] = molecular target: PKCα(h) (Homo sapiens, UniProt P17252); experiment: Inhibition of isolated kinases; assay type: biochemical; conditions: compound @ 10 μM
Description: as §3

[16] = molecular target: MAPK2(h) (Homo sapiens, UniProt P28482); experiment: Inhibition of isolated kinases; assay type: biochemical; conditions: compound @ 10 μM
Sequence of MAPK2(h) (P28482 whole entry): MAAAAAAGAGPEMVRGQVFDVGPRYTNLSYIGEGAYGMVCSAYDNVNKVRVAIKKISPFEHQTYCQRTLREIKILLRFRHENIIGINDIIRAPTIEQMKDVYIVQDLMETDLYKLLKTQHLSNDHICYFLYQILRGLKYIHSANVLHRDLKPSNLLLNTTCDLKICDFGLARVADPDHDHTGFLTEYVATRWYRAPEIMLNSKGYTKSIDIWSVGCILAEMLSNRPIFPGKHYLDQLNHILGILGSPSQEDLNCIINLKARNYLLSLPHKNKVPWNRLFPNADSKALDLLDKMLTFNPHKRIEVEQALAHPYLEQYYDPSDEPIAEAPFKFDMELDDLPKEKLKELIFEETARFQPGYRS
Description: as §3

[17] = molecular target: Lyn(h) (Homo sapiens, UniProt P07948); experiment: Inhibition of isolated kinases; assay type: biochemical; conditions: compound @ 10 μM
Description: as §3

[18] = molecular target: FGFR2(h) (Homo sapiens, UniProt P21802); experiment: Inhibition of isolated kinases; assay type: biochemical; conditions: compound @ 10 μM
Description: as §3

[19] = molecular target: Lck(h) (Homo sapiens, UniProt P06239); experiment: Inhibition of isolated kinases; assay type: biochemical; conditions: compound @ 10 μM
Sequence of Lck(h) (P06239 whole entry): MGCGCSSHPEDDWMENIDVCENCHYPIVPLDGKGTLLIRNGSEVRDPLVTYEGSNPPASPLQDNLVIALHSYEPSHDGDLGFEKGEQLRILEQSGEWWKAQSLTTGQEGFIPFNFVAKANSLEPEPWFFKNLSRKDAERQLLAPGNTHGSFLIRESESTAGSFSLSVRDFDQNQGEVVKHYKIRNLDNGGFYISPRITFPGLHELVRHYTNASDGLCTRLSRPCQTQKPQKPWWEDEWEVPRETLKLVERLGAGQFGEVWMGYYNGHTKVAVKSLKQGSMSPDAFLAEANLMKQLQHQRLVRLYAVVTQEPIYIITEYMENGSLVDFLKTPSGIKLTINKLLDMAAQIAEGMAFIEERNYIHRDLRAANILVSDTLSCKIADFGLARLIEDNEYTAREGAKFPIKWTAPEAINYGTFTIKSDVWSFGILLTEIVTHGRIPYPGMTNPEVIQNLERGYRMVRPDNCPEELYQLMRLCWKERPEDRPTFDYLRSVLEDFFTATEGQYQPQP
Description: as §3

[20] = molecular target: IR(h) (Homo sapiens, UniProt P06213); experiment: Inhibition of isolated kinases; assay type: biochemical; conditions: compound @ 10 μM
Description: as §3

[21] = molecular target: EGFR(h) (Homo sapiens, UniProt P00533); experiment: Inhibition of isolated kinases; assay type: biochemical; conditions: compound @ 10 μM
Description: as §3

percent activity of isolated kinase relative to control (untreated) [2]: 105%
percent activity of isolated kinase relative to control (untreated) [7]: 85%
percent activity of isolated kinase relative to control (untreated) [8]: 120%
percent activity of isolated kinase relative to control (untreated) [9]: 92%
percent activity of isolated kinase relative to control (untreated) [10]: 101%
percent activity of isolated kinase relative to control (untreated) [11]: 110%
percent activity of isolated kinase relative to control (untreated) [12]: 108%
percent activity of isolated kinase relative to control (untreated) [13]: 97%
percent activity of isolated kinase relative to control (untreated) [14]: 100%
percent activity of isolated kinase relative to control (untreated) [15]: 111%
percent activity of isolated kinase relative to control (untreated) [16]: 112%
percent activity of isolated kinase relative to control (untreated) [17]: 113%
percent activity of isolated kinase relative to control (untreated) [18]: 94%
percent activity of isolated kinase relative to control (untreated) [19]: 109%
percent activity of isolated kinase relative to control (untreated) [20]: 112%
percent activity of isolated kinase relative to control (untreated) [21]: 134%
SMILES: O=C(Cc1ccc(-c2ccc(OCCN3CCOCC3)cc2)cn1)NCc1ccccc1 [KX2-391]
phosphorylation of She Y239/240 (Src trans-phosphorylation) [1]: inhibited
phosphorylation of FAK Tyr 925 (Src trans-phosphorylation) [3]: inhibited
FAK autophosphorylation (Y397) [4]: no inhibition
phosphorylation of Paxillin Y-31 (Src trans-phosphorylation) [5]: inhibited
PDGF receptor autophosphorylation (Y572/574) [6]: Some effect
